Data: the NIST ThermoML archive (doi:10.1016/j.jct.2017.03.006)
Numbers after ± are expanded uncertainties.

Assay: xn = mol fraction of the nth substance listed
Conditions: Liquid; for mass density: Vibrating tube method; for viscosity: Concentric cylinders viscometry

Cc1ccc(C)c(C)c1 [1,2,4-trimethylbenzene] + CCC(C)O
mass density (273.15 K, 60000 kPa, x2 = 0.1): 917.1 ± 0.7 kg/m3
mass density (273.15 K, 60000 kPa, x2 = 0.1989): 911.9 ± 0.7 kg/m3
mass density (273.15 K, 60000 kPa, x2 = 0.3011): 906.2 ± 0.8 kg/m3
mass density (273.15 K, 60000 kPa, x2 = 0.4002): 900.7 ± 0.8 kg/m3
mass density (273.15 K, 60000 kPa, x2 = 0.5001): 894.6 ± 0.8 kg/m3
mass density (273.15 K, 60000 kPa, x2 = 0.5997): 888.3 ± 0.8 kg/m3
mass density (273.15 K, 60000 kPa, x2 = 0.6999): 881.3 ± 0.8 kg/m3
mass density (273.15 K, 60000 kPa, x2 = 0.7999): 873.8 ± 0.8 kg/m3
mass density (273.15 K, 60000 kPa, x2 = 0.9): 865.5 ± 0.8 kg/m3
mass density (273.15 K, 70000 kPa, x2 = 0): 926.2 ± 0.7 kg/m3
mass density (273.15 K, 70000 kPa, x2 = 0.1): 921.5 ± 0.8 kg/m3
mass density (273.15 K, 70000 kPa, x2 = 0.1989): 916.2 ± 0.8 kg/m3
mass density (273.15 K, 70000 kPa, x2 = 0.3011): 910.7 ± 0.8 kg/m3
mass density (273.15 K, 70000 kPa, x2 = 0.4002): 905.2 ± 0.8 kg/m3
mass density (273.15 K, 70000 kPa, x2 = 0.5001): 899.2 ± 0.8 kg/m3
mass density (273.15 K, 70000 kPa, x2 = 0.5997): 892.8 ± 0.8 kg/m3
mass density (273.15 K, 70000 kPa, x2 = 0.6999): 886 ± 0.8 kg/m3
mass density (273.15 K, 70000 kPa, x2 = 0.7999): 878.4 ± 0.8 kg/m3
mass density (273.15 K, 70000 kPa, x2 = 0.9): 870.2 ± 0.8 kg/m3
mass density (273.15 K, 80000 kPa, x2 = 0): 930.3 ± 0.8 kg/m3
mass density (273.15 K, 80000 kPa, x2 = 0.1): 925.7 ± 0.8 kg/m3
mass density (273.15 K, 80000 kPa, x2 = 0.1989): 920.6 ± 0.8 kg/m3
mass density (273.15 K, 80000 kPa, x2 = 0.3011): 915 ± 0.8 kg/m3
mass density (273.15 K, 80000 kPa, x2 = 0.4002): 909.6 ± 0.8 kg/m3
mass density (273.15 K, 80000 kPa, x2 = 0.5001): 903.5 ± 0.8 kg/m3
mass density (273.15 K, 80000 kPa, x2 = 0.5997): 897.2 ± 0.8 kg/m3
mass density (273.15 K, 80000 kPa, x2 = 0.6999): 890.3 ± 0.8 kg/m3
mass density (273.15 K, 80000 kPa, x2 = 0.7999): 882.8 ± 0.8 kg/m3
mass density (273.15 K, 80000 kPa, x2 = 0.9): 874.6 ± 0.8 kg/m3
mass density (273.15 K, 90000 kPa, x2 = 0): 934.2 ± 0.8 kg/m3
mass density (273.15 K, 90000 kPa, x2 = 0.1): 929.8 ± 0.8 kg/m3
mass density (273.15 K, 90000 kPa, x2 = 0.1989): 924.7 ± 0.8 kg/m3
mass density (273.15 K, 90000 kPa, x2 = 0.3011): 919.1 ± 0.8 kg/m3
mass density (273.15 K, 90000 kPa, x2 = 0.4002): 913.7 ± 0.8 kg/m3
mass density (273.15 K, 90000 kPa, x2 = 0.5001): 907.7 ± 0.8 kg/m3
mass density (273.15 K, 90000 kPa, x2 = 0.5997): 901.4 ± 0.8 kg/m3
mass density (273.15 K, 90000 kPa, x2 = 0.6999): 894.6 ± 0.8 kg/m3
mass density (273.15 K, 90000 kPa, x2 = 0.7999): 887.1 ± 0.8 kg/m3
mass density (273.15 K, 90000 kPa, x2 = 0.9): 878.9 ± 0.8 kg/m3
mass density (273.15 K, 100000 kPa, x2 = 0): 938 ± 0.8 kg/m3
mass density (273.15 K, 100000 kPa, x2 = 0.1): 933.7 ± 0.8 kg/m3
mass density (273.15 K, 100000 kPa, x2 = 0.1989): 928.6 ± 0.8 kg/m3
mass density (273.15 K, 100000 kPa, x2 = 0.3011): 923.1 ± 0.8 kg/m3
mass density (273.15 K, 100000 kPa, x2 = 0.4002): 917.7 ± 0.8 kg/m3
mass density (273.15 K, 100000 kPa, x2 = 0.5001): 911.7 ± 0.8 kg/m3
mass density (273.15 K, 100000 kPa, x2 = 0.5997): 905.5 ± 0.8 kg/m3
mass density (273.15 K, 100000 kPa, x2 = 0.6999): 898.7 ± 0.8 kg/m3
mass density (273.15 K, 100000 kPa, x2 = 0.7999): 891.2 ± 0.8 kg/m3
mass density (273.15 K, 100000 kPa, x2 = 0.9): 883 ± 0.9 kg/m3
mass density (273.15 K, 110000 kPa, x2 = 0): 941.7 ± 0.8 kg/m3
mass density (273.15 K, 110000 kPa, x2 = 0.1): 937.6 ± 0.8 kg/m3
mass density (273.15 K, 110000 kPa, x2 = 0.1989): 932.5 ± 0.8 kg/m3
mass density (273.15 K, 110000 kPa, x2 = 0.3011): 927 ± 0.8 kg/m3
mass density (273.15 K, 110000 kPa, x2 = 0.4002): 921.6 ± 0.8 kg/m3
mass density (273.15 K, 110000 kPa, x2 = 0.5001): 915.7 ± 0.8 kg/m3
mass density (273.15 K, 110000 kPa, x2 = 0.5997): 909.4 ± 0.8 kg/m3
mass density (273.15 K, 110000 kPa, x2 = 0.6999): 902.5 ± 0.8 kg/m3
mass density (273.15 K, 110000 kPa, x2 = 0.7999): 895.1 ± 0.9 kg/m3
mass density (273.15 K, 110000 kPa, x2 = 0.9): 887 ± 0.9 kg/m3
mass density (273.15 K, 120000 kPa, x2 = 0): 945.2 ± 0.8 kg/m3
mass density (273.15 K, 120000 kPa, x2 = 0.1): 941.3 ± 0.8 kg/m3
mass density (273.15 K, 120000 kPa, x2 = 0.1989): 936.2 ± 0.8 kg/m3
mass density (273.15 K, 120000 kPa, x2 = 0.3011): 930.8 ± 0.8 kg/m3
mass density (273.15 K, 120000 kPa, x2 = 0.4002): 925.3 ± 0.8 kg/m3
mass density (273.15 K, 120000 kPa, x2 = 0.5001): 919.5 ± 0.8 kg/m3
mass density (273.15 K, 120000 kPa, x2 = 0.5997): 913.2 ± 0.8 kg/m3
mass density (273.15 K, 120000 kPa, x2 = 0.6999): 906.4 ± 0.8 kg/m3
mass density (273.15 K, 120000 kPa, x2 = 0.7999): 899 ± 0.9 kg/m3
mass density (273.15 K, 120000 kPa, x2 = 0.9): 890.8 ± 0.9 kg/m3
mass density (273.15 K, 130000 kPa, x2 = 0): 948.6 ± 0.8 kg/m3
mass density (273.15 K, 130000 kPa, x2 = 0.1): 944.9 ± 0.8 kg/m3
mass density (273.15 K, 130000 kPa, x2 = 0.1989): 939.9 ± 0.8 kg/m3
mass density (273.15 K, 130000 kPa, x2 = 0.3011): 934.4 ± 0.8 kg/m3
mass density (273.15 K, 130000 kPa, x2 = 0.4002): 929 ± 0.8 kg/m3
mass density (273.15 K, 130000 kPa, x2 = 0.5001): 923.2 ± 0.8 kg/m3
mass density (273.15 K, 130000 kPa, x2 = 0.5997): 916.9 ± 0.8 kg/m3
mass density (273.15 K, 130000 kPa, x2 = 0.6999): 910.1 ± 0.9 kg/m3
mass density (273.15 K, 130000 kPa, x2 = 0.7999): 902.7 ± 0.9 kg/m3
mass density (273.15 K, 130000 kPa, x2 = 0.9): 894.6 ± 0.9 kg/m3
mass density (273.15 K, 140000 kPa, x2 = 0): 952 ± 0.8 kg/m3
mass density (273.15 K, 140000 kPa, x2 = 0.1): 948.2 ± 0.8 kg/m3
mass density (273.15 K, 140000 kPa, x2 = 0.1989): 943.3 ± 0.8 kg/m3
mass density (273.15 K, 140000 kPa, x2 = 0.3011): 937.6 ± 0.8 kg/m3
mass density (273.15 K, 140000 kPa, x2 = 0.4002): 932.3 ± 0.8 kg/m3
mass density (273.15 K, 140000 kPa, x2 = 0.5001): 926.7 ± 0.8 kg/m3
mass density (273.15 K, 140000 kPa, x2 = 0.5997): 920.4 ± 0.8 kg/m3
mass density (273.15 K, 140000 kPa, x2 = 0.6999): 913.4 ± 0.9 kg/m3
mass density (273.15 K, 140000 kPa, x2 = 0.7999): 906 ± 0.9 kg/m3
mass density (273.15 K, 140000 kPa, x2 = 0.9): 897.9 ± 0.9 kg/m3
viscosity (293.15 K, 100 kPa, x2 = 0): 0.888 ± 0.019 mPa·s
viscosity (293.15 K, 100 kPa, x2 = 0.1001): 0.885 ± 0.019 mPa·s
viscosity (293.15 K, 100 kPa, x2 = 0.2261): 0.909 ± 0.019 mPa·s
viscosity (293.15 K, 100 kPa, x2 = 0.3): 0.935 ± 0.02 mPa·s
viscosity (293.15 K, 100 kPa, x2 = 0.3966): 1.013 ± 0.021 mPa·s
viscosity (293.15 K, 100 kPa, x2 = 0.5298): 1.121 ± 0.024 mPa·s
viscosity (293.15 K, 100 kPa, x2 = 0.6001): 1.25 ± 0.026 mPa·s
viscosity (293.15 K, 100 kPa, x2 = 0.7001): 1.48 ± 0.031 mPa·s
viscosity (293.15 K, 100 kPa, x2 = 0.7997): 1.85 ± 0.038 mPa·s
viscosity (293.15 K, 100 kPa, x2 = 0.9001): 2.47 ± 0.051 mPa·s
mass density (293.15 K, 100 kPa, x2 = 0): 875.1 ± 0.7 kg/m3
mass density (293.15 K, 100 kPa, x2 = 0.1): 869.3 ± 0.7 kg/m3
